Consider three compounds from US20240368133A1, “Compounds for the Treatment of Pain, in Particular, Neuropathic Pain, and/or Other Diseases or Disorders that are Associated with AT2R and/or AT2R Mediated Signaling” (Confo Therapeutics N.V., priority 2021, published 2024).

Holding throughout (assay type): in vitro ADME
Data set [1] is described as follows: Caco-2 permeability assay. To be noted: human, pH 7.4; Caco-2, BA. In general terms: Caco-2 cells form a polarised layer with tight junctions and transporters.
Data set [2] is described as follows: Plasma protein binding (equilibrium dialysis), dog. Particulars: for fraction unbound at 4 h, 5 µM: equilibrium dialysis, read-out: PPB (%), dog (converted); for recovery at 4 h, 5 µM: plasma (freshly thawed), PPB assay recovery. On the procedure:
Prior to the start of the experiment, dialysis membranes (membrane strips, MW cut-off 12-14 kDa, HTDialysis, Cat.NoJl 101) are soaked in deionized water for 60 min, transferred and left overnight in 20% EtOH. The day of experiment, a 10 mM stock solution of the compound in DMSO is diluted with a factor 10 in DMSO. This solution is further diluted in freshly thawed human, rat, mouse or dog plasma (BioIVT) with a final concentration of 5 μM and final DMSO concentration of 0.5%.
From this solution, an aliquot of 50 μL was taken and matrix matched with an equivalent volume of PBS for the recovery plate, after which 6 volumes of STOP solution were added to the recovery plate. For these recovery plates, no incubation is done.
Equilibrium Dialysis Device (96-well, model HTD96b, HTDialysis, Cat. No. #1006) is assembled according to manufacturer's instructions. Immediately after assembly, a volume of 100 μL of plasma (spiked with compound) is placed on one side of the well and another 100 μL of blank PBS buffer are added to the other side, respectively. Each compound is tested in duplicate. Acebutolol and Nicardipine are used as low and very high binding controls, except for the mouse, Caffeine is used as low binder instead Acebutolol. If the PPB values for these controls are not in the range determined by the historical data, the assay is not validated.
The plate is incubated for 4 h at 37° C. while shaking at 230 rpm. Thereafter, an aliquot of 50 μL is taken from each side of the well and matrix matched (mix of equal volumes of spiked plasma with blank PBS buffer and samples from buffer compartment with blank plasma). Matrix matched samples are further mixed with 3 volumes of STOP solution (acetonitrile/MeOH 2/1 with diclofenac as internal standard). After brief mixing and centrifugation (at 2400 rpm for 15 min, at +4° C.), the supernatant is filtered and transferred into new 96-well plates for analysis on LC-MS/MS (systems API4000).
The percentage of plasma protein bound compound and recovery were calculated using following equations:
with: • Cplasma=peak area of the compound in the plasma/peak area of the IS in the plasma • Cbuffer=peak area of the compound in the buffer/peak area of the IS in the buffer • ‘Concentration’ is the ratio between compound and IS peak areas
The recovery is a control, which allows to be sure that the compound has not a non-specific binding to the plates or is not stable in the plasma in these conditions:
with: • PBS=(ratio of the peak area of the compound/peak area of the IS) in the PBS compartment after 4 h • Plasma=(ratio of the peak area of the compound/peak area of IS) in the plasma compartment after 4 h • Recov=Recovery=ratio of the peak are of the compound I the well recovery/peak area of the IS in the well recovery at TO […]
In general terms: In equilibrium dialysis only unbound substance equilibrates across the membrane.

The nature of data set [3]: Liver microsomal stability, dog. Particulars: male, Beagle, pH 7.4, liver microsomes. The method, then: Mouse hepatic microsomes were isolated from pooled, perfused livers of male CD1 mice. Rat hepatic microsomes were isolated from pooled, perfused livers of male Sprague Dawley rats. Dog hepatic microsomes were isolated from pooled, perfused livers of male Beagle dogs. The batches of microsomes were tested for quality control using Testosterone, Propranolol and Caffeine as reference compounds.
A 10 mM stock solution of compound in DMSO is diluted three-fold in DMSO. This pre-diluted compound solution is then further diluted to 2 μM in a 50 mM phosphate buffer (PBS, pH 7.4) and pre-warmed at 37° C. This compound dilution is mixed F2 with microsomal/cofactor mix at 37° C. under shaking at 300 rpm. Final reaction conditions are: 100 μL incubation volume, 1 μM of test compound (in duplicate), <0.1% DMSO, 0.5 mg/mL microsomes, 0.6 U/mL Glucose-6-phosphate-dehydrogenase (G6PDH, Roche, 10127671001), 3.3 mM MgCl2 (Sigma, M2670), 3.3 mM glucose-6-phosphate (Sigma, G-7879) and 1.3 mM NADP+ (Sigma, N-0505).
After 60 min of incubation at 300 rpm and 37° C., the reaction was stopped with 3 volumes of STOP solution (acetonitrile/MeOH 2/1 with diclofenac as internal standard). For the time point zero, 3 volumes of STOP solution were added to the compound dilution before the microsome mix was added. Six time points over 60 minutes have been analyzed. The samples of all time points were centrifuged, filtered and the supernatant analyzed by LCMS/MS (systems API4000).
The instrument responses (peak areas/IS peak area) were referenced to the zero time-point samples (considered as 100%) in order to determine the percentage of compound remaining.
Testosterone (1 μM) and Propranolol and Caffeine (1 μM) were used as reference compounds, being unstable and stable compounds respectively. If the microsomal stability values for these controls are not in the range determined by the historical data, the assay is not validated. The solubility of the compound in the final test concentration in 50 mM buffer pH 7.4 is checked by microscope to indicate whether precipitation is observed or not. If a precipitate is observed, no data of microsomal stability is generated.
On the technique in general: Microsomes from liver hold many membrane-bound enzymes, among them those of drug oxidation.

Data set [4] in a line: Metabolic stability in hepatocytes, dog. Particulars: Beagle, pooled cryopreserved hepatocytes, read-out: Dog Clint (μL/min/10^6 cells). On the procedure:
The aim of this assay is to determine the metabolic stability of the compound in hepatocytes (cryopreserved) of different species (mouse CD1, rat Sprague Dawley, dog Beagle). Low hepatocyte stability may result in the formation of unwanted metabolites, high clearance, and therefore is not desirable. The decrease in parent was assessed by measuring the percentage remaining by LC-MS/MS analysis. The batches of hepatocytes were tested for quality control using Testosterone, Umbelliferone and Caffeine as reference compounds.
A 10 mM stock solution of test compound in DMSO was first diluted in DMSO to 3 mM, and then in modified Krebs-Henseleit buffer (Sigma, K3753) to 5 μM. This compound dilution was added to a suspension of pooled cryopreserved hepatocytes (BioIVT) at 37° C. under gentle shaking. […]
After 0, 10, 20, 45, 90, 120 and 180 min of incubation, the reaction was terminated with 3 volumes of MeCN:MeOH (2:1) containing diclofenac as analytical internal standard. Samples were mixed, centrifuged and the supernatant analyzed by LC-MS/MS (systems API4000). […]
Testosterone (1 μM) and Umbelliferone (1 μM) and Caffeine (1 μM) were used as reference compounds, being unstable and stable compounds respectively. If the hepatocyte stability values for these controls are not in the range determined by the historical data, the assay is not validated.

Usually Papp B→A stands for how fast a substance crosses the layer from the basolateral side. As for `CCC1CN(c2cc(CC(C)C)cc(F)c2-c2nn[nH]n2)CCN1Cc1cccnn1` (stereo not shown) [Compound A-178, 3-[[2-ethyl-4-[3-fluoro-5-isobutyl-2-(2H-tetrazol-5-yl)phenyl]piperazin-1-yl]methyl]pyridazine], the Papp B→A at 90 min, 10 µM in data set [1] was 8.6 ×10⁻⁶ cm/s.
In general, microsomal CLint refers to a measure of how fast metabolising enzymes remove a compound, apart from limits set by blood flow. Lower therefore signals greater metabolic stability. Consider `CC(C)Cc1cc(F)c(-c2nn[nH]n2)c(N2CCN(Cc3ccccn3)[C@@H](C)C2)c1` [Compound A-217, (2S)-4-[3-fluoro-5-isobutyl-2-(2H-tetrazol-5-yl)phenyl]-2-methyl-1-(2-pyridylmethyl)piperazine], for which, in data set [2], the fraction unbound at 4 h, 5 µM was 0.042 and the recovery at 4 h, 5 µM was 96%. Besides, in data set [3], the microsomal CLint at 1 µM was less than 11.5 µL/min/mg. Also, the hepatocyte CLint at 1 µM in data set [4] was less than 5.1 µL/min/1e6 cells.
Consider `CC(C)Cc1cc(F)c(-c2nn[nH]n2)c(N2CCN(Cc3cccnn3)[C@@H](C)C2)c1` [Compound A-174, 3-[[(2S)-4-[3-fluoro-5-isobutyl-2-(2H-tetrazol-5-yl)phenyl]-2-methyl-piperazin-1-yl]methyl]pyridazine], for which, in data set [2], the fraction unbound at 4 h, 5 µM is 0.062 and the recovery at 4 h, 5 µM amounted to 97%. Further, in data set [3], the microsomal CLint at 1 µM was less than 11.7 µL/min/mg. Moreover, the hepatocyte CLint at 1 µM in data set [4] was less than 5.1 µL/min/1e6 cells. This compound had a Papp B→A at 90 min, 10 µM in data set [1] of 2.4 ×10⁻⁶ cm/s.
